From US11795439B2, “Methods for reprogramming cells and uses thereof” (GENESIS TECHNOLOGIES LIMITED, priority 2009, dated 2023)

B1: Noggin: Noggin (20 ng/ml, Peprotech), inhibits the BMP signaling pathway (protein, UniProt Q13253 28-232, looked up)
Noggin: QHYLHIRPAPSDNLPLVDLIEHPDPIFDPKEKDLNETLLRSLLGGHYDPGFMATSPPEDRPGGGGGAAGGAEDLAELDQLLRQRPSGAMPSEIKGLEFSEGLAQGKKQRLSKKLRRKLQMWLWSQTFCPVLYAWNDLGSRFWPRYVKVGSCFSKRSCSVPEGMVCKPSKSVHLTVLRWRCQRRGGQRCGWIPIQYPIISECKCSC

Key:
Assay type in all cases: cell-based, human
[1] = tested on: fibroblast cells within CDM; assay: Trans-differentiation of cells within CDM by cytochalasin B, VPA, 5-Azacytidine, immunohistochemistry; conditions: Day 14 CDM; cytochalasin B and NbActive medium only
Procedure: Fibroblast cells were cultured in DMEM medium in the presence of 10% FCS as described in Example I, followed by seeding onto 12-well plates pre-coated with laminin ([…]) at a concentration of 2×10^6 cells/ml in defined CDM Medium consisting of a 3:1 ratio of Dulbecco's modified Eagle medium (DMEM, high glucose (4.5 g/L) with L-glutamine and sodium pyruvate) and Ham's F-12 medium supplemented with the following components: EGF (4.2×10^−10M), bFGF (2.8×10^−10M), ITS (8.6×10^−5M), dexamethasone (1.0×10^−7M), L-ascorbic acid phosphate magnesium salt n-hydrate (3.2×10^−4M), L-3,3′,5-triiodothyronine (2.0×10^−10M), ethanolamine (10^−4M), GlutaMAX™ (4×10^−3M), glutathione (3.3×10^−6M), and 1% penicillin/streptomycin/amphotericin B. By culturing the fibroblast cells at hyperconfluent density in this completely chemically defined medium causes them to enter a high synthetic phase with a slow-down in proliferation, leading to the production of a living tissue equivalent (LTE) consisting of multiple layers of fibroblasts within de novo 3D extracellular matrix (CDM) that is completely synthesized by the fibroblasts themselves.
Day 14 CDM samples were treated with cytochalsin B (10 μg/ml, Calbiochem), with the concentration of cytochalsin B reduced from 10 μg/ml to 0 μg/ml (none) over 5 days while at the same time switching the medium from CDM Medium to NbActive medium. […]

[2] = tested on: fibroblast cells; assay: Immunohistochemistry (Cellomics) % Sox2 and nestin positive cells with or without cytochalasin B (Table 4); conditions: disrupting the cell cytoskeleton
Procedure: Cells were fixed with a 4% formaldehyde/PBS solution for 10 min at room temperature and subsequently permeabilized for 5 min with 0.1% Triton X-100™ in 4% formaldehyde/PBS. After two brief washes with PBS, unspecific antibody binding was blocked by a 30 min incubation with 5% normal goat serum in PBS. Then primary antibodies were added in 5% normal goat serum/PBS as follows: Mouse anti-Nestin (1:100, BD) as an […] present in neural stem cells and mouse anti-NCAM (1:100, Neuromics) as neuronal adhesion molecule. After a 2 h incubation the cells were washed 4 times for 5 min each with 0.1% Tween™/PBS. Appropriate fluorescence-tagged secondary antibody was used for visualization; Goat anti-mouse 546 (1:200, invitrogen) prepared in 5% normal goat serum/PBS was used. […] Fluorescence images were taken with a Cellomics™ ArrayScan HCS Reader microscopy system. To determine an estimate of the percentage of cells adopting neuronal or glial phenotypes, random fields were selected and for each field the total number of cells (as determined by counting Hoechst stained nuclei) and the total number of cells positive for neuronal or glial markers were determined.
Various combinations of neurogenic regulators and cytokines for epigenetic modifications were tested to ascertain their effect on reprogramming efficiency. […] Cells were then analyzed for neural stem cell markers. […]

[3] = tested on: HFFs; assay: Sox2 immunohistochemistry with or without Noggin; conditions: inhibiting the BMP signaling pathway
Procedure: This study was designed to evaluate the role of Noggin in the process of de-differentiation of HFFs towards NSLCs. HFFs were cultured and treated with cytochalasin B as described in Example III. After two days of treatment, cells were transfected by Nucleofection as described in Example II with the constructed vector Msi1/Ngn2. Briefly, after preparing the cells, they were mixed with 2 μg of total DNA (Msi1/Ngn2) and were co-transfect with MBD2 ([…]), by the Amaxa's Nucleofector™ according to the manufacturer's protocol. The samples were then transferred into a Laminin (10 μg/ml, Sigma) coated culture plate and cultured in the presence of Neural Proliferation Medium (NeuroCult™ proliferation Kit, StemCell Technologies) with recombinant hFGF (20 ng/ml, Peprotech), recombinant hEGF (20 ng/ml, Peprotech), and with or without the presence of Noggin (20 ng/ml, Peprotech). Samples were collected at different time points (1, 3, 4, 6, and 8 days) to analyze neuronal gene expression by RT-PCR and protein expression levels by immunohistochemistry.
Fluorescent imunohistochemical staining was performed on samples after 4 days of transfection as previously described in Example I. Transfected cells were stained and analyzed for expression of Sox2, the percentage of Sox2 was 33.3±1.00% in the presence of Noggin compared to 27.5±0.50% without the presence of noggin at day 4. […]

| Molecule | βIII-tubulin positive cells [1] | effect on reprogramming [2] | effect on reprogramming [3] |
| --- | --- | --- | --- |
| C=C1[C@@H](C)[C@H]2[C@H](Cc3ccccc3)NC(=O)[C@]23OC(=O)/C=C/[C@H](O)CCC[C@@H](C)C/C=C/[C@H]3[C@@H]1O [Cytochalasin B] | failed to detect | significantly enhanced reprogramming, but had no reprogramming effect on its own |  |
| B1 |  |  | enhanced reprogramming, but had no reprogramming effect on its own |
